# Measurements as given in paper PMC5532651, “Bistratamides M and N, Oxazole-Thiazole Containing Cyclic Hexapeptides Isolated from Lissoclinum bistratum Interaction of Zinc (II) with Bistratamide K” (Marine Drugs, 2017).
# Assays:
# [1] = test system: MDA-MB-231 human breast adenocarcinoma cells; assay: Cell proliferation / cytotoxicity, MDA-MB-231 breast; format: cell-based; conditions: for GI50: concentration producing 50% inhibition of cell growth vs control, NCI algorithm; for LC50: concentration producing 50% cell death vs control; for TGI: concentration producing total growth inhibition vs control
# Experimental: (§1) The cytotoxic activity of compounds 1 and 2 was tested against NSLC A-549 human lung carcinoma cells, MDA-MB-231 human breast adenocarcinoma cells, HT-29 human colorectal carcinoma cells, and PSN1 (human pancreatic carcinoma cells). The concentration giving 50% inhibition of cell growth (GI50) was calculated according to the procedure described in the literature. Cell survival was estimated using the National Cancer Institute (NCI) algorithm. Three dose response parameters were calculated for 1 and 2.
# [2] = test system: PSN1 (human pancreatic carcinoma cells); assay: Cell proliferation / cytotoxicity, PSN1 pancreas; format: cell-based; conditions: for GI50: concentration producing 50% inhibition of cell growth vs control, NCI algorithm; for LC50: concentration producing 50% cell death vs control; for TGI: concentration producing total growth inhibition vs control
# Experimental: as §1
# [3] = test system: NSLC A-549 human lung carcinoma cells; assay: Cell proliferation / cytotoxicity, NSLC A-549 lung; format: cell-based; conditions: for GI50: NCI algorithm; for LC50: concentration producing 50% cell death vs control; for TGI: concentration producing total growth inhibition vs control
# Experimental: as §1
# [4] = test system: HT-29 human colorectal carcinoma cells; assay: Cell proliferation / cytotoxicity, HT-29 colon; format: cell-based; conditions: for GI50: concentration producing 50% inhibition of cell growth vs control, NCI algorithm; for LC50: concentration producing 50% cell death vs control; for TGI: concentration producing total growth inhibition vs control
# Experimental: as §1
# [5] = test system: recombinant human topoisomerase I; assay: Enzymatic Topoisomerase 1 (Top1) assay; format: biochemical; conditions: up to highest concentration tested 100 μM (range 100 to 0.2 μM); 50 pM enzyme; 1 h preincubation, 1 h reaction, room temperature, pH 8.0; H19 dye fluorescence
# Experimental: The activity of human topoisomerase I was determined based on the increase in fluorescence of a commercial dye (“H19”, Profoldin, Westborough, MA, USA) when interacting with DNA and the higher number of interaction points present in supercoiled DNA with respect to relaxed DNA. Therefore, the activity of the enzyme causes a decrease of fluorescence intensity when the probe is added. The enzyme reaction is performed in a final volume of 20 μL in 384 black wells. Compounds 1 and 2, at twice their final concentrations, were mixed with 50 pM recombinant human topoisomerase I (Profoldin, Westborough, MA, USA) in 10 μL of 10 mM Tris-HCl pH 8.0 with 150 mM sodium chloride, 3 mM magnesium chloride and 5% (v/v) glycerol and incubated for 1 h at room temperature. Then, reaction was started by the addition of 10 μL of supercoiled DNA (Profoldin, Westborough, MA, USA) at 25 μg/mL in the same buffer and the mixture was incubated at room temperature for 1 h. […] After 1 h at room temperature the degree of conversion from supercoiled to relaxed DNA was determined by monitoring fluorescence intensity (excitation at 485 nm, emission at 535 nm) in a microtiter plate reader. […] IC50 values were calculated by fitting the results to a typical four parameters logistic curve by nonlinear regression analysis.
# [6] = test system: human tumor cell lines A-549 (lung), HT-29 (colon), MDA-MB-231 (breast) and PSN1 (pancreas); assay: Cytotoxicity against four human tumor cell lines (summary in words); format: cell-based; conditions: GI50 values in the micromolar range
# Experimental: as §1
# [7] = concentration producing 50% inhibition of cell growth vs control
Compound,GI50 ([1]; Homo sapiens) [µM],LC50 [1] [µM],TGI [1] [µM],GI50 ([2]; Homo sapiens) [µM],LC50 [2] [µM],TGI [2] [µM],"GI50 ([3]; Homo sapiens, A549, concentration producing 50% inhibition of cell growth vs control) [µM]",LC50 [3] [µM],TGI [3] [µM],GI50 ([4]; Homo sapiens) [µM],LC50 [4] [µM],TGI [4] [µM],Top1 inhibition [5],GI50 [1] [µM],GI50 [2] [µM],cytotoxic activity (in words) [6],"GI50 [3, 7] [µM]",GI50 [4] [µM]
"COc1cccc2c1C(=O)c1c(O)c3c(c(O)c1C2=O)C[C@@](O)(C(=O)CO)C[C@@H]3O[C@H]1C[C@H](N)[C@H](O)[C@H](C)O1 [Doxorubicin, reference compound]",0.2,2.4,0.5,0.2,3.1,0.5,0.2,>17.2,0.9,0.3,>17.2,0.9,,,,,,
"CC[C@H](C)[C@@H]1NC(=O)c2csc(n2)[C@@H](C)NC(=O)c2coc(n2)[C@H](C)NC(=O)c2csc1n2 [Bistratamide N (2), Bistratamide N]",,>20.0,>20.0,,>20.0,>20.0,,>20.0,>20.0,,>20,>20,failed to show any hint of inhibition even at the highest concentration tested,> 20,15,moderate cytotoxic activity with GI50 values in the micromolar range,11,13
"CC[C@H](C)[C@@H]1NC(=O)c2csc(n2)[C@H](C)NC(=O)c2coc(n2)[C@H](C)NC(=O)c2csc1n2 [Bistratamide M (1), Bistratamide M]",,>20.0,>20.0,,>20.0,>20.0,,>20.0,>20.0,,>20.0,>20.0,failed to show any hint of inhibition even at the highest concentration tested,18,9.8,moderate cytotoxic activity with GI50 values in the micromolar range,9.1,16
